The values that follow come from ChEMBL document CHEMBL1157802, “5-Functionalized indazoles as glucocorticoid receptor agonists” (Bioorg Med Chem Lett, 2010).

In the assay the target is T1, Glucocorticoid receptor (Homo sapiens, UniProt P04150).
T1 sequence (P04150 whole entry): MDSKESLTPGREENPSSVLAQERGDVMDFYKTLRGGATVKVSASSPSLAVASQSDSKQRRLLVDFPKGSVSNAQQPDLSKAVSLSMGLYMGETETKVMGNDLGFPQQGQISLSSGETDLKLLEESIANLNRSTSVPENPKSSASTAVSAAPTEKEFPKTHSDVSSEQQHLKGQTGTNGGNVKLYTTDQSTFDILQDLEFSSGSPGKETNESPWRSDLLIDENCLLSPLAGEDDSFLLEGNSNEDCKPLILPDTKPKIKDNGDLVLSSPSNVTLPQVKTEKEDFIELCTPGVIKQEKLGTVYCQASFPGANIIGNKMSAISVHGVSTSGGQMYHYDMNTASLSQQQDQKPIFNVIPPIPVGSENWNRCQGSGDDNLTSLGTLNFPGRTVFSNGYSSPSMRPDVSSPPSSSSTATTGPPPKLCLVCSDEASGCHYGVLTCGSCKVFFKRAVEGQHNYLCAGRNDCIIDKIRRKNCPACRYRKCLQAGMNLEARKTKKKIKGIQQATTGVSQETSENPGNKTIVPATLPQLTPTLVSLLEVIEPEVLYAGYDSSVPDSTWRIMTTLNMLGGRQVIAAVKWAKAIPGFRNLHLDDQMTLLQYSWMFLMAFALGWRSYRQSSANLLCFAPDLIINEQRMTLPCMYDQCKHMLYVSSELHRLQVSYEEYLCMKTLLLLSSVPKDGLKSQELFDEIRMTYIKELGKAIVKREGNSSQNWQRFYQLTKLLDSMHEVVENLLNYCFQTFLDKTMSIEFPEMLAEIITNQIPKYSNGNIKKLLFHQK
Description: Binding affinity to human glucocorticoid receptor by fluorescence polarization competitive binding assay
For `Cc1ccc(C(O)(c2ccc3c(cnn3-c3ccc(F)cc3)c2)C(F)(F)F)cc1` (stereo unspecified), the IC50 is 2090 nM.
Next, `OC(c1ccc2c(cnn2-c2ccc(F)cc2)c1)(c1cccc(Cl)c1Cl)C(F)(F)F` (stereo in doubt; 23) [1-(2,3-DICHLOROPHENYL)-2,2,2-TRIFLUORO-1-(1-(4-FLUOROPHENYL)-1H-INDAZOL-5-YL)ETHANOL (ENANTIOMERIC MIX)]: 87 nM; `OC(c1ccc(F)cc1)(c1ccc2c(cnn2-c2ccc(F)cc2)c1)C(F)(F)F` (single isomer, unassigned; (-)) [2,2,2-TRIFLUORO-1-(4-FLUOROPHENYL)-1-(1-(4-FLUOROPHENYL)-1H-INDAZOL-5-YL)ETHANOL (DIASTEREOMERIC MIX)]: 86 nM.
Next, `OC(c1ccc2c(cnn2-c2ccc(F)cc2)c1)(c1ccccc1Cl)C(F)(F)F` (stereo unspecified): 35 nM; `Cc1ccccc1C(O)(c1ccc2c(cnn2-c2ccc(F)cc2)c1)C(F)(F)F` (stereo unspecified): 282 nM.
For `N#Cc1cccc(C(O)(c2ccc3c(cnn3-c3ccc(F)cc3)c2)C(F)(F)F)c1` (stereo unspecified) the value was 99 nM; for `CC(O)(c1ccc(F)cc1)c1ccc2c(cnn2-c2ccc(F)cc2)c1` (stereo unspecified), 2110 nM; for `OC(c1ccc2c(cnn2-c2ccc(F)cc2)c1)(c1ccccc1F)C(F)(F)F` (stereo unspecified), 54 nM.
The molecule `N#Cc1cc(C(O)(c2ccc3c(cnn3-c3ccc(F)cc3)c2)C(F)(F)F)ccc1F` (stereo unspecified) yielded an IC50 of 30 nM.
Next, `OC(c1ccc(F)cc1)(c1ccc2c(cnn2-c2ccc(F)cc2)c1)C(F)(F)F` (stereo in doubt; 12) [2,2,2-TRIFLUORO-1-(4-FLUOROPHENYL)-1-(1-(4-FLUOROPHENYL)-1H-INDAZOL-5-YL)ETHANOL (DIASTEREOMERIC MIX)]: 161 nM; `OC(c1ccc(F)cc1)(c1ccc2c(cnn2-c2ccc(F)cc2)c1)C(F)(F)F` (single isomer, unassigned; (+)) [2,2,2-TRIFLUORO-1-(4-FLUOROPHENYL)-1-(1-(4-FLUOROPHENYL)-1H-INDAZOL-5-YL)ETHANOL (DIASTEREOMERIC MIX)]: 3000 nM; `OC(c1ccc(Cl)c(Cl)c1)(c1ccc2c(cnn2-c2ccc(F)cc2)c1)C(F)(F)F` (stereo unspecified): 178 nM.
Next, `OC(c1cccc(Cl)c1)(c1ccc2c(cnn2-c2ccc(F)cc2)c1)C(F)(F)F` (stereo unspecified): 72 nM; `Cc1cccc(C(O)(c2ccc3c(cnn3-c3ccc(F)cc3)c2)C(F)(F)F)c1` (stereo unspecified): 52 nM; `OC(c1ccc(F)cc1)c1ccc2c(cnn2-c2ccc(F)cc2)c1` (stereo unspecified): 10000 nM.
As for `OC(c1ccc(F)c(Cl)c1)(c1ccc2c(cnn2-c2ccc(F)cc2)c1)C(F)(F)F` (stereo in doubt; 18) [1-(3-CHLORO-4-FLUOROPHENYL)-2,2,2-TRIFLUORO-1-(1-(4-FLUOROPHENYL)-1H-INDAZOL-5-YL)ETHANOL (ENANTIOMERIC MIX)], the IC50 came out at 117 nM.

One may read the IC50 as the midpoint of a concentration-inhibition curve. Lower therefore signals greater potency.
